Test [1] has as its target MMP-13 (Homo sapiens, UniProt P45452). The test is described as follows: MMP-13 inhibition (thiopeptide or fluorescent peptide substrate). The format is biochemical.
Method: (§1) The enzyme activity is measured by the rate of the color increase. The thiopeptide substrate is made up fresh as a 20 mM stock in 100% DMSO and the DTNB is dissolved in 100% DMSO as a 100 mM stock and stored in the dark at room temperature. Both the substrate and DTNB are diluted together to 1 mM with substrate buffer (50 mM HEPES pH 7.5, 5 mM CaCl2) before use. The stock of enzyme is diluted with buffer (50 mM HEPES, pH 7.5, 5 mM CaCl2, 0.02% Brij) to the desired final concentration.
(§2) Alternatively, a fluorescent peptide substrate is used. In this test procedure, the peptide substrate contains a fluorescent group and a quenching group. Upon cleavage of the substrate by an MMP, the fluorescence that is generated is quantitated on the fluorescence plate reader. The assay is run in HCBC assay buffer (50mM HEPES, pH 7.0, 5 mM Ca^+2, 0.02% Brij, 0.5% Cysteine), with human recombinant MMP-1, MMP-9, or MMP-13. The substrate is dissolved in methanol and stored frozen in 1 mM aliquots. For the assay, substrate and enzymes are diluted in HCBC buffer to the desired concentrations. Compounds are added to the 96 well plate containing enzyme and the reaction is started by the addition of substrate.
(§3) For either the thiopeptide or fluorescent peptide test procedures, the slope of the line is calculated and represents the reaction rate. The linearity of the reaction rate is confirmed (r^2 >0.85).
The target of test [2] is TNF-α converting enzyme (TACE) (Homo sapiens, UniProt P78536). As to the kind of experiment: TACE inhibition (fluorescent peptidyl substrate). The test is classed as biochemical.
Method: Using 96-well black microtiter plates, each well receives a solution composed of 10 µL TACE (final concentration 1µg/mL), 70µL Tris buffer, pH 7.4 containing 10% glycerol (final concentration 10 mM), and 10 µL of test compound solution in DMSO (final concentration 1µM, DMSO concentration <1%) and incubated for 10 minutes at room temperature.
The reaction is read (excitation 340 nm, emission 420 nm) for 10 min. and the increase in fluorescence over time is plotted as a linear line. The slope of the line is calculated and represents the reaction rate.
The linearity of the reaction rate is confirmed (r^2 >0.85). The mean (x±em) of the control rate is calculated and compared for statistical significance (p<0.05) with drug-treated rates using Dunnett's multiple comparison test.
The test system of test [3] is THP-1 cells. As to the kind of experiment: THP-1 soluble protein assay (human monocytic THP-1 cell differentiation assay). The test is classed as cell-based. As to conditions: read-out: THP % inhibition at 3µM, LPS-stimulated THP-1 cells. An excerpt: Mitogenic stimulation of THP-1 cells cause differentiation into macrophage like cells with concomitant secretion of tumor necrosis factor (TNF-•) and TNF receptor (TNF-R p75/80 and TNF-R p55/60) and Interleukin-8 (IL-8), among other proteins. In addition, non-stimulated THP-1 cells shed both the p75/80 and the p55/60 receptors over time. […] THP-1 cells (from ATCC) are a human monocytic cell line which were obtained from the peripheral blood of a person with acute monocytic leukemia. They can be grown in culture and differentiated into macrophage like cells by stimulation with mitogens. For the assay, THP-1 cells are seeded from an ATCC stock which was previously grown and frozen back at 5 x 10^6/ml/vial. […] Each vial of cells are cultured for about two weeks prior to being used for an assay and then are used for only 4 to 6 weeks to screen compounds. Cells are subcultured on Mondays and Thursdays to a concentration of 1 x 10^5/ml. […] At the same time, […] of drug, vehicle or THP-1 media is plated in appropriate wells to give a final volume of 1.2 ml/well. […] Cell exposure to DMSO was limited to 0.1 % final concentration. Positive control wells were included in the experiment which had mitogen added but no drug. Vehicle control wells were included as well, which were identical to the positive control wells, except that DMSO was added to give a final concentration of 0.083%. Negative control wells were included in the experiment which had vehicle but no mitogen or drug added to the cells. Compounds can be evaluated for their effect on basal (non-stimulated) shedding of the receptors by replacing the LPS with […] of THP-1 media. Plates are placed into an incubator set at 5% CO2 and at 37 °C. After 4 hours of incubation, […] of tissue culture supernatant (TCS) is removed for use in an TNF-α ELISA. Following 24 hours of incubation, […] of TCS is removed and used for analysis in TNF-R p75/80, TNF-R p55/60 and IL-8 ELISAs. In addition, at the 24 hours timepoint, and the cells for each treatment group are collected by resuspension in 500 µl/well of THP-1 media and transferred into a FACS tube. Two ml/tube of a 0.5 mg/ml stock of propidium iodide (PI) (Boerhinger Mannheim cat. # 1348639) is added. The samples are run on a Becton Dickinson FaxCaliber FLOW cytometry machine and the amount of dye taken up by each cell is measured in the high red wavelength (FL3). Only cells with compromised membranes (dead or dying) can take up PI. The percent of live cells is calculated by the number of cells not stained with PI, divided by the total number of cells in the sample. The viability values calculated for the drug treated groups were compared to the viability value calculated for the vehicle treated mitogen stimulated group ("vehicle positive control") to determine the "percent change from control". This "percent change from control" value is an indicator of drug toxicity. The quantity of soluble TNF-α, TNF-R p75/80 and TNF-R p55/60 and IL-8 in the TCS of the THP-1 cell cultures are obtained with commercially available ELISAs from R&D Systems, by extrapolation from a standard curve generated with kit standards. The number of cells that either take up or exclude PI are measured by the FLOW cytometry machine and visualized by histograms using commercially available Cytologic software for each treatment group including all controls. […]

The target in test [4] is MMP-9 (Homo sapiens, UniProt P14780). The test is described as follows: MMP-9 inhibition (thiopeptide or fluorescent peptide substrate). The format is biochemical.
Method: as §1, §2, §3

Each structure is given as a SMILES string. pIC50: −log10 of the molar value. Read-outs that look alike come from different tables or passages of the source.

Here are results for five compounds from patent EP1157024B1, “ACETYLENIC ORTHO-SULFONAMIDO AND PHOSPHINIC ACID AMIDO BICYCLIC HETEROARYL HYDROXAMIC ACIDS AS TACE INHIBITORS” (American Cyanamid Company, priority 1999, dated 2000).

MMP-9, sequence (P14780 94-707): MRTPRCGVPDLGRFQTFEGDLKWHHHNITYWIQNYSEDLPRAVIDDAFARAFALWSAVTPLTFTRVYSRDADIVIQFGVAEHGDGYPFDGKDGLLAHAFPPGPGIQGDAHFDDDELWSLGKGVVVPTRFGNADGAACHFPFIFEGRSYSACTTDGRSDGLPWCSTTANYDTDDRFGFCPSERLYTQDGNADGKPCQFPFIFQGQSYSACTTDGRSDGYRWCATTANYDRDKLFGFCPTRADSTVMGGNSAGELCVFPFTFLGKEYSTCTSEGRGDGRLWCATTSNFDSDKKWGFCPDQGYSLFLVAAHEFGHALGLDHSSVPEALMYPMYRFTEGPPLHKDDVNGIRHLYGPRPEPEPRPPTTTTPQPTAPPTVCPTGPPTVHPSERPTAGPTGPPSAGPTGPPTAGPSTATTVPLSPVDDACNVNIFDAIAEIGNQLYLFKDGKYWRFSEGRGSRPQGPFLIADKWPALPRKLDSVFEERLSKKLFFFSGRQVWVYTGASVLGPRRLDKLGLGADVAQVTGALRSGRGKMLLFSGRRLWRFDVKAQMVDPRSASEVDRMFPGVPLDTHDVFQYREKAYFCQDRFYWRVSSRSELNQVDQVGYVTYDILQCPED
TNF-α converting enzyme (TACE), sequence (P78536 215-824, species assumed): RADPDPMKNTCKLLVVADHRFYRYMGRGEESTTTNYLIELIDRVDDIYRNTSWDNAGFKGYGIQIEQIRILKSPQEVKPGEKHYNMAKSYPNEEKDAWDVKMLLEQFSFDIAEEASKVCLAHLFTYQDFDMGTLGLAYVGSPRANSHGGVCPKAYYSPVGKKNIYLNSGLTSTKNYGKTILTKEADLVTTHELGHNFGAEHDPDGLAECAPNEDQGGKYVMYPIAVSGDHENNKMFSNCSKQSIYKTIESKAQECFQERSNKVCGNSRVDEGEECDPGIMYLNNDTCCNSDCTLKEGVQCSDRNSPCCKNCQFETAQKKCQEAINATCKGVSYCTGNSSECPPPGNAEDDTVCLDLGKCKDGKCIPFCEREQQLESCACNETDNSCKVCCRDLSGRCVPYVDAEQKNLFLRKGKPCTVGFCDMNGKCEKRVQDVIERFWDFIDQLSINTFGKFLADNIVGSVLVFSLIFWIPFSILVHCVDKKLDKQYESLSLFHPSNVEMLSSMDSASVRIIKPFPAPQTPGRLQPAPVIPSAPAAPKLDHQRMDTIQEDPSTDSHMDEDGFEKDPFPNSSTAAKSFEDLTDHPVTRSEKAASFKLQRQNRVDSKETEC

`CC#CCOc1ccc(S(=O)(=O)N(C)c2c(C(=O)NO)cnc3c(Br)cccc23)cc1` [Example 99, 8-Bromo-4-[{[4-(2-butynyloxy)phenyl]sulfonyl} (methyl)amino]-N-hydroxy-3-quinolinecarboxamide]: the pIC50 in test [1] (read-out: MMP-13 IC50) is 7.57; in test [2] (read-out: TACE IC50), 7.09. Moreover, in test [3], the inhibition at 3 µM stood at 32%.

For the compound `CC#CCOc1ccc(S(=O)(=O)N(C)c2c(C(=O)NO)cnc3snc(C)c23)cc1` [Example 13, 4-[(4-But-2-ynyloxy-benzenesulfonyl)-methyl-amino]-3-methyl-isothiazolo[5,4-b]pyridine-5-carboxylic acid hydroxyamide], the pIC50 was 7.02 in test [4], 7.47 in test [1] and 7.85 in test [2]. The inhibition at 3 µM in test [3] turned out to be 42%.

Turning to `CC#CCOc1ccc(S(=O)(=O)N(C)c2c(C(=O)NO)cnc3onc(C)c23)cc1` [Example 9, 4-[(4-But-2-ynyloxy-benzenesulfonyl)-methyl-amino]-3-methyl-isoxazolo[5,4-b]pyridine-5-carboxylic acid hydroxyamide], the pIC50 was 6.61 in test [4], 6.82 in test [1] and 8.23 in test [2]. In test [3], the inhibition at 3 µM came to 57%.

Turning to `CC#CCOc1ccc(S(=O)(=O)N(C)c2c(C(=O)NO)cnc3c2c(C)nn3C)cc1` [Example 7, 4-[(4-But-2-ynyloxy-benzenesulfonyl)-methyl-amino]-1,3-dimethyl-1H-pyrazolo[3,4-b]pyridine-5-carboxylic acid hydroxyamide], the pIC50 in test [4] was 6.94; in test [2], 7.52. For the same compound, the inhibition at 3 µM in test [3] was 60%.

Turning to `CC#CCOc1ccc(S(=O)(=O)N(C)c2c(C(=O)NO)cnc3c(OC)cccc23)cc1` [Example 11, 4-[(4-But-2-ynyloxy-benzenesulfonyl)-methyl-amino]-8-methoxy-quinoline-3-carboxylic acid hydroxyamide], the pIC50 in test [4] is 7.48; in test [1] (read-out: MMP-13 IC50) it was 8.04; in test [2] it was 7.77. In test [3], the inhibition at 3 µM came out at 58%.
